Source: patent US4994485A, “Thio compounds having fungicidal activity” (Duphar International Research B.V., priority 1986, dated 1991)

Columns and labels:
[1] = tested on: Fusarium culmorum; experiment: Protection of seedlings against plant pathogenic seed fungus by seed treatment (wheat); assay type: in vivo; conditions: wheat seed infested with Fusarium culmorum; 3 g composition (10% by weight in kaolin) per kg of seed; after three weeks, 8°-12° C.; untreated 67
Procedure: Test with respect to the protection of seedlings against a plant pathogenic seed fungus, namely Fusarium culmorum, by means of a seed treatment.
Wheat seed, infested with Fusarium culmorum, is treated with the substance to be tested in the form of a composi tion in a quantity of 3 g per kg of seed. The composition is obtained by pulverising the substance to be tested and then intimately mixing with kaolin in a concentration of 10% by weight. The seed thus treated is sown in a tray containing soil which is placed in a Wisconsin tank with a bottom temperature of 8°-12° C. After three weeks the number of emerged and healthy plants is determined. The emergence of healthy plants from untreated seed serves as control. For comparison, the known substances 2-methylsulphinyl-4-methyl-5-nitrothiazole (a), 2-methylsulphinyl-3-nitrothiophene (b) and 2-ethylsulphinyl-3-nitro-5-acetylthiophene (c) mentioned hereinbefore are also tested. In the examples, the numbers of the compounds refer to the specification.

[2] = tested on: Pyrenophora graminea; experiment: In vitro test on activity against Pyrenophora graminea; assay type: cell-based; conditions: 48 hours, 20° C., read-out: % growth inhibition of the fungus
Procedure: In vitro test on activity against Pyrenophora graminea.
(§1) The compound to be tested is processed in a culture medium consisting of 1% by weight of glucose, 0.2% by weight of a yeast extract (marmite), 0.5% by weight of a protein (pepton), 2.5% by weight of agar-agar, and 95.8% by weight of water, in petri dishes in concentrations of 3 and 10 ppm. The petri dishes are inoculated with the plant-pathogenic fungus Pyrenophora graminea and then kept at a temperature of 20° C. After 48 hours the growth-inhibiting activity of the compounds is determined visually. For comparison, the known substance (b) (see EXAMPLE XV) is also tested.

[3] = tested on: Fusarium culmorum; experiment: In vitro test on activity against Fusarium culmorum; assay type: cell-based; conditions: read-out: growth inhibition of the fungus
[4] = tested on: Rhizoctonia solani; experiment: In vitro test on activity against Rhizoctonia solani; assay type: cell-based; conditions: read-out: growth inhibition of the fungus
Procedure: as §1, with “in petri dishes in concentrations of 3 and 10 ppm.” left out
Compounds according to the invention are tested on Rhizoctonia solani in the same manner as described in EXAMPLE XIX.

[5] = tested on: Leptosphaeria nodorum; experiment: In vitro test on activity against Leptosphaeria nodorum; assay type: cell-based; conditions: Parastagonospora nodorum, read-out: growth inhibition of the fungus
Procedure: as §1
Compounds according to the invention are tested on i Leptosphaeria nodorum in the same manner as described in EXAMPLE XIX.

[6] = tested on: Pythium splendens; experiment: In vitro test on activity against Pythium splendens; assay type: cell-based; conditions: Globisporangium splendens, read-out: growth inhibition of the fungus
[7] = tested on: Pythium spp.; experiment: Protection of seedlings against plant-pathogenic soil fungus by seed treatment (beet); assay type: in vivo; conditions: after 3 weeks, 18°-22° C., untreated 72
Procedure: Test with respect to the protection of seedlings against a plant-pathogenicsoil fungus, namely Pythium spp., by means of a seed treatment.
The compounds to be tested are processed to compositions by pulverising them and then mixing them intimately with kaolin in the desired concentration (see Table B). Beet seed is treated with these compositions in a quantity of 6 g of composition per kg of seed and then sown in trays with soil which was seriously infested with Pythium spp. After 3 weeks in a glass-house at 18°-22° C. and a relative humidity of 70-100%, the percentage of non-emerged and diseased seedlings (damping-off) is determined. The results are recorded in Table B. For comparison, the known substance 2-methylsulphinyl-4-methyl-5-nitrothiazole(a) is also tested.

[8] = Acute oral toxicity (lethal dose) in male mice; conditions: mouse, in vivo, acute mortality, mg/kg of body weight
Procedure: Toxicity with respect to warm-blooded living beings.
The LD50 is determined by orally administering the substance to be tested to male mice and determining the acute mortality. In Table C below, the LD50 is recorded in mg/kg of body weight.
For comparison, the known compound (b) (see EXAMPLE XV) is also tested.

[9] = 600 mg of active substance per kg of seed
[10] = 1200 mg of active substance per kg of seed

Row | Compound | Percentage of emerged, healthy plants [1] | inhibition at 3 ppm [2] | inhibition at 10 ppm [2] | inhibition at 30 ppm [3] | inhibition at 30 ppm [4] | inhibition at 30 ppm [5] | inhibition at 10 ppm [6] | percentage damping-off [7, 9] | percentage damping-off [7, 10] | LD50 [8]
1 | CC(=O)c1sc([S+](C)[O-])c(C#N)c1Cl (centres unmarked) [(2), 2-methylsulphinyl-3-cyano-4-chloro-5-acetylthiophene] | 87% | 64% | 79% | ≥ 75% | ≥ 75% | ≥ 85% | ≥ 95% | 7% | 6% | –
2 | C[S+]([O-])c1sc(C#N)c(Cl)c1C#N (centres unmarked) [(3), 2-methylsulphinyl-3,5-dicyano-4-chlorothiophene] | 91% | 57% | 80% | ≥ 75% | ≥ 75% | ≥ 85% | ≥ 95% | 6% | 5% | –
3 | C[S+]([O-])c1sc(C#N)cc1C#N (centres unmarked) [(4), 2-methylsulphinyl-3,5-dicyanothiophene] | 90% | 66% | 84% | – | ≥ 75% | ≥ 85% | ≥ 95% | 10% | 9% | –
4 | CC[S+]([O-])c1sc(C(C)=O)c(Cl)c1C#N (centres unmarked) [(5), 2-ethylsulphinyl-3-cyano-4-chloro-5-acetylthiophene] | 85% | 54% | 89% | ≥ 75% | – | ≥ 85% | ≥ 95% | 21% | 17% | –
5 | CC[S+]([O-])c1sc(C#N)c(Cl)c1C#N (centres unmarked) [(7), 2-ethylsulphinyl-3,5-dicyano-4-chlorothiophene] | 98% | 59% | 83% | ≥ 75% | – | ≥ 85% | ≥ 95% | 17% | 17% | 400 mg/kg
6 | CC[S+]([O-])c1sc(C#N)cc1C#N (centres unmarked) [(8), 2-ethylsulphinyl-3,5-dicyanothiophene] | 92% | 49% | 72% | – | – | – | ≥ 95% | 16% | 12% | 119 mg/kg
7 | CC[S+]([O-])c1sc(C(C)=O)c(N)c1C#N (centres unmarked) [(10), 2-ethylsulphinyl-3-cyano-4-amino-5-acetylthiophene] | 98% | – | – | – | – | ≥ 85% | ≥ 95% | 10% | 9% | 141 mg/kg
8 | CC[S+]([O-])c1sc(C#N)c(OC)c1C#N (centres unmarked) [(13), 2-ethylsulphinyl-3,5-dicyano-4-methoxythiophene] | 90% | – | – | ≥ 75% | – | ≥ 85% | ≥ 95% | 3% | 1% | 130 mg/kg
9 | CSC(=C(C#N)c1ccc(Cl)c(Cl)c1)[S+](C)[O-] (stereo not drawn) [(15), α-cyano-β-merhylsulphinyl-β-methylthio-3,4-dichloro-styrene] | – | – | – | – | ≥ 75% | ≥ 85% | ≥ 95% | – | – | –
10 | CSC(=C(C#N)c1ccc(Cl)cc1)[S+](C)[O-] (stereo not drawn) [(19), α-cyanoβ-methylsulphinyl-β-methylthio-4-chlorostyrene] | – | – | – | ≥ 75% | ≥ 75% | ≥ 85% | ≥ 95% | – | – | –
11 | CC[S+]([O-])c1sc2cc([N+](=O)[O-])ccc2c1C#N (centres unmarked) [(27), 2-ethylsulphinyl-3-cyano-6-nitro-benzothiophene] | 96% | – | – | ≥ 75% | ≥ 75% | ≥ 85% | ≥ 95% | 4% | 2% | –
